Where a name gives a salt, the structure may show the parent alone. Read-outs that look alike come from different tables or passages of the source.
Tests used:
5-HT2B = 5-HT2B (Homo sapiens (Human), UniProt P41595); assay: FLIPR Ca2+ flux agonist assay, 5-HT2B; format: cell-based; settings: for 5-HT2B % Act @ Max Dose: Ca2+ flux, HEK293
Method: A solution of 250 mM probenecid in 1 mL FLIPR assay buffer was prepared fresh. This was combined with a fluorescent dye (Fluo-4 Direct™) to make a final assay concentration of 2.5 mM. […] The fluorescent dye was then added to the assay plate along with assay buffer to a final volume of 40 μL. The cell plate was incubated for 50 min at 37° C. and 5% CO2 and placed into the FLIPR Tetra along with the compound plate. 10 μL of references and compounds were then transferred from the compound plate into the cell plate and the fluorescent signal was read.

[1] = Metabolic stability in rat liver microsomes (RLM); format: in vitro ADME; settings: both sexes, pooled rat liver microsomes, pH 7.4, NADPH
Method: RLM Stability. Pooled RLM from adult male and female donors (Xenotech R1000) were used. Microsomal incubations were carried out in multi-well plates. […] Control incubations were performed by replacing the NADPH-cofactor system with PBS. Test compounds (1 μM, final solvent concentration 1.0%) were incubated with microsomes at 37° C. with constant shaking. Six time points over 60 minutes were analyzed, with 60 μL aliquots of the reaction mixture being drawn at each time point.

[2] = Pharmacokinetics in mice, brain; format: in vivo, C57BL/6 mice; settings: for half-life / Cmax / Tmax / AUC0-last: mouse brain; for F: mouse, based on brain AUC0-last
Method: Animals. Male C57BL/6 mice, aged 8-12 weeks, were used in these studies. Four mice were housed in each cage. Temperature and humidity were maintained at 22±3° C. and 30-70%, respectively, and illumination was controlled to give a 12 h light and 12 h dark cycle. Temperature and humidity were recorded by an auto-controlled data logger system. All animals were provided laboratory rodent diet. Reverse osmosis water treated with ultraviolet light was provided ad libitum. Animals were randomly assigned to treatment groups.
Drugs. Compounds 4 and 5 were prepared as described above. All other compounds were commercially obtained. Test compounds were used as the hydrogen fumarate (1 and 2) or hydrochloride (3, 4, and 5) salts and were dissolved in a vehicle consisting of normal saline. They were then administered intravenously (IV) via the tail vein, subcutaneously (SC), or orally (PO) via gavage at a dose of 1 or 10 mg/kg (calculated based on the free base) and at a volume of 5 ml/kg body weight.
Sample Collection and Bioanalysis. Blood samples (approximately 60 μL) were collected under light isoflurane anesthesia (Surgivet®) from the retro orbital plexus at 0.08, 0.25, 0.5, 1, 2, 4, 8, and 24 h (4 animals per time point). Immediately after blood collection, plasma was harvested by centrifugation at 4,000 rpm for 10 min at 4° C. and samples were stored at −70±10° C. until bioanalysis. Following blood collection, animals were immediately sacrificed, the abdominal vena-cava was cut open, and the whole body was perfused from the heart using 10 mL of normal saline, and brain samples were collected from all animals. After isolation, brain samples were rinsed three times in ice-cold normal saline (for 5-10 seconds/rinse using ˜5-10 mL normal saline in disposable petri dish for each rinse) and dried on blotting paper. Brain samples were homogenized using ice-cold phosphate-buffered saline (pH 7.4). Total homogenate volume was three times the tissue weight. All homogenates were stored at −70±10° C. until bioanalysis. For bioanalysis, 25 μL aliquots of plasma/brain study samples or spiked plasma/brain calibration standards were added to individual pre-labeled micro-centrifuge tubes followed by 100 μL of an internal standard solution (glipizide, 500 ng/ml in acetonitrile) except for blanks, where 100 μL of acetonitrile was added. Samples were vortexed for 5 minutes and then centrifuged for 10 minutes at 4,000 rpm at 4° C. Following centrifugation, 100 μL of each clear supernatant was transferred to a 96 well plate and analyzed with a fit-for-purpose LC-MS/MS method, with authentic samples of each analyte used for calibration and identification.
Data Analysis. Pharmacokinetic parameters were estimated using the non-compartmental analysis tool of Phoenix® WinNonlin software (Ver 8.0).

[3] = Stability in rat brain homogenate; format: in vitro ADME, Sprague Dawley rats; settings: for half-life at 1 μM: male, Sprague Dawley; for half-life at 1 μM / % Compound Remaining (after 120 min): rat brain homogenate, 37° C., 1 μM
Method: Rat Brain Homogenate Stability. Frozen rat brain homogenate (pooled from male Sprague Dawley rats, BioreclamationIVT, RATOOBRAINMZA) was thawed in a water bath at 37° C. immediately prior to use. Positive controls and test compounds (final concentration in incubation medium=1 μM for test compounds and 2 μM for controls, all with 2% DMSO) were incubated in duplicate for each time point (0, 10, 30, 60, and 120 min) in the rat brain homogenate at a total reaction volume of 100 μL at 37° C. At the end of each incubation period, reactions were immediately quenched with 400 μL of acetonitrile containing internal standard (200 ng/ml tolbutamine and 200 ng/ml labetalol) and mixed thoroughly. Plates were then sealed, shaken for 20 min, and centrifuged at 4,000 rpm and 4° C. for 20 min. Aliquots of 50 μL of each supernatant were diluted into 100 uL of water and the mixtures were then shaken again for 10 min.

[4] = Stability in mouse brain homogenate; format: in vitro ADME, CD-1 mice; settings: for half-life at 1 μM: male, CD-1; for half-life at 1 μM / % Compound Remaining (after 120 min): mouse brain homogenate, 37° C., 1 μM
Method: Mouse Brain Homogenate Stability. Frozen mouse brain homogenate (pooled from male CD-1 mice, BioreclamationIVT, MSE00BRAINMZA) was thawed in a water bath at 37° C. immediately prior to use. Positive controls and test compounds (final concentration in incubation medium=1 μM for test compounds and 2 μM for controls, all with 2% DMSO) were incubated in duplicate for each time point (0, 10, 30, 60, and 120 min) in the mouse brain homogenate at a total reaction volume of […] at 37° C. At the end of each incubation period, reactions were immediately quenched with 400 μL of acetonitrile containing internal standard (200 ng/mL tolbutamine and 200 ng/ml labetalol) and mixed thoroughly. Plates were then sealed, shaken for 20 min, and centrifuged at 4,000 rpm and 4° C. for 20 min. Aliquots of 50 μL of each supernatant were diluted into 100 μL of water and the mixtures were then shaken again for 10 min.

[5] = male, C57BL/6, IV, 10 mg/kg, read-out: Cmax (C0 back-extrapolated to t = 0)
[6] = male, C57BL/6, oral, 10 mg/kg, read-out: Cmax
[7] = male, C57BL/6, SC, 10 mg/kg, read-out: Cmax
[8] = male, C57BL/6, SC, 1 mg/kg, read-out: Cmax

Sequence of 5-HT2B (P41595 whole entry, looked up, species assumed): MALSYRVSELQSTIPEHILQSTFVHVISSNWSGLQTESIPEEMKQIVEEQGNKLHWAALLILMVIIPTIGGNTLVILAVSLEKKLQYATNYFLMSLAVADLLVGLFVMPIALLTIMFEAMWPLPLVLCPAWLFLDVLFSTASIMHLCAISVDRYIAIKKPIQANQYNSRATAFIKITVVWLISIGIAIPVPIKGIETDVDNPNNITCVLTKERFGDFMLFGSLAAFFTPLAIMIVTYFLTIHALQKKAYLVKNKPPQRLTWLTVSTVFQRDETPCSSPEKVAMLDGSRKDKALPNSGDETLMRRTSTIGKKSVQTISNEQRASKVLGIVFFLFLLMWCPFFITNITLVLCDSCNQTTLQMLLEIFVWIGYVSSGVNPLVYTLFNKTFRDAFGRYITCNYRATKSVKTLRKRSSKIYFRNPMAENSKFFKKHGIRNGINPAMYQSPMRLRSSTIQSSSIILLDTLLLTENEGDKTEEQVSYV

| Compound | 5-HT2B % Act @ Max Dose (5-HT2B) [%] | half-life at 1 μM [1] [min] | microsomal CLint at 1 μM [1] [µL/min/mg] | half-life ([2]; male, C57BL/6, IV, 10 mg/kg) [min] | Cmax [2, 5] [ng/g] | Tmax ([2]; male, C57BL/6, oral, 10 mg/kg) [min] | half-life ([2]; male, C57BL/6, oral, 10 mg/kg) [min] | Cmax [2, 6] [ng/g] | AUC0-last ([2]; IV, 10 mg/kg) | AUC0-last ([2]; oral, 10 mg/kg) | F ([2]; oral, 10 mg/kg) [%] | stability in rat brain homogenate (in words) [3] | half-life at 1 μM [3] [min] | % Compound Remaining (after 120 min) [3] [%] | stability in mouse brain homogenate (in words) [4] | half-life at 1 μM [4] [min] | % Compound Remaining (after 120 min) [4] [%] | EC50 (5-HT2B) [nM] | Tmax ([2]; male, C57BL/6, SC, 10 mg/kg) [min] | Cmax [2, 7] [ng/g] | other results |
| --- | --- | --- | --- | --- | --- | --- | --- | --- | --- | --- | --- | --- | --- | --- | --- | --- | --- | --- | --- | --- | --- |
| CCN(C)CCc1c[nH]c2ccccc12 [Compound 2, methylethyltryptamine] | 22.5 | 0.9 | 1560 | 92.4 | 6250 | 30 | 451 | 957 | 3,923.27 h*ng/g | 1,988.41 h*ng/g | 51 | high stability | > 289 | 76.5 | intermediate stability | 123 | 47.8 | – | – | – | – |
| CN(C)CCc1c[nH]c2ccccc12 [DMT, N,N-dimethyltryptamine, reference compound] | 10.4 | 10.1 | 137 | – | – | – | – | – | – | – | – | highly unstable | 5.1 | 0.0 | highly unstable | 6.4 | 0.0 | – | – | – | – |
| CCCN(CC)CCc1c[nH]c2ccccc12 [Compound 1, ethylpropyltryptamine] | 80.4 | 1.4 | 970 | 104 | 15400 | 15 | 39.6 | 101 | 4,754.52 h*ng/g | 68.93 ng·h/g | 1.4 | high stability | > 289 | 86.9 | high stability | > 289 | 113.8 | 40.3 | – | – | – |
| CCCN(CC)CCc1c[nH]c2ccc(F)cc12 [Compound 3, N-ethyl-N-(2-(5-fluoro-1H-indol-3-yl)ethyl) propan-1-amine hydrochloride] | 64.64 | 3.2 | 428 | – | – | – | – | – | – | – | – | high stability | > 289 | 103.3 | high stability | > 289 | 76.7 | 15.4 | – | – | – |
| CN(C)CCc1c[nH]c2cccc(O)c12 [Psilocin, psilocin, reference compound] | 1.44 | 75.6 | 18.3 | – | – | – | – | – | – | – | – | intermediate stability | 115 | 46.1 | high stability | > 289 | 97.6 | – | – | – | clearance ([2]; male, C57BL/6, mouse brain table, IV, 1 mg/kg): 24.1 mL/min/kg; half-life ([2]; male, C57BL/6, IV, 1 mg/kg): 182 min; Cmax ([2]; male, C57BL/6, IV, 1 mg/kg, read-out: Cmax (C0 back-extrapolated to t = 0)): 1200 ng/g; Tmax ([2]; male, C57BL/6, oral, 1 mg/kg): 10.2 min; half-life ([2]; male, C57BL/6, oral, 1 mg/kg): 175 min; Cmax ([2]; male, C57BL/6, oral, 1 mg/kg, read-out: Cmax): 211 ng/g; AUC0-last ([2]; IV, 1 mg/kg): 702 ng·h/g; AUC0-last ([2]; oral, 1 mg/kg): 399 ng·h/g; F ([2]; oral, 1 mg/kg): 57% |
| CCN(C)CCc1c[nH]c2cccc(O)c12 [Compound 6] | 1.09 | 50.1 | 27.7 | – | – | – | – | – | – | – | – | intermediate stability | 53 | 20.9 | intermediate stability | 45.8 | 16.7 | – | 30 | 2920 | half-life ([2]; male, C57BL/6, SC, 10 mg/kg): 64.2 min; AUC0-last ([2]; SC, 10 mg/kg): 3,549.18 h*ng/g |
| CN(C)CCc1c[nH]c2ccc(F)cc12 [Compound 5, 2-(5-fluoro-1H-indol-3-yl)-N,N-dimethylethan-1-amine hydrochloride] | – | 9.2 | 151 | – | – | – | – | – | – | – | – | highly unstable | 2.7 | 0.0 | highly unstable | 3.1 | 0.0 | – | 15 | 778 | Tmax ([2]; male, C57BL/6, SC, 1 mg/kg): 4.8 min; Cmax [2, 8]: 22 ng/g; AUC0-last ([2]; SC, 10 mg/kg): 376.09 ng·h/g |
| CCN(C)CCc1c[nH]c2ccc(F)cc12 [Compound 4, N-ethyl-2-(5-fluoro-1H-indol-3-yl)-N-methylethan-1-amine hydrochloride] | 0.79 | 6.1 | 229 | 56.4 | 7980 | 15 | 79.2 | 1400 | 10,471.19 h*ng/g | 3,835.86 h*ng/g | 37 | intermediate stability | 183 | 62.0 | intermediate stability | 54.3 | 20.7 | > 10000 | 60 | 3510 | Tmax ([2]; male, C57BL/6, SC, 1 mg/kg): 15 min; half-life ([2]; male, C57BL/6, SC, 1 mg/kg): 22.2 min; Cmax [2, 8]: 461 ng/g; half-life ([2]; male, C57BL/6, SC, 10 mg/kg): 49.2 min; AUC0-last ([2]; SC, 1 mg/kg): 320.97 ng·h/g; AUC0-last ([2]; SC, 10 mg/kg): 6,672.16 h*ng/g; F ([2]; SC, 1 mg/kg): 31%; F ([2]; SC, 10 mg/kg): 64% |

From US20240317683A1, “METHODS OF TREATING MOOD DISORDERS” (priority 2020, published 2024)
